Molecules are shown by their SMILES. Entries after “also recorded” stand apart in the source; their conditions may differ.

Assay [1] concerns T47D cells. Briefly: Cell viability of T47D cells with doxycycline-inducible PSMD2 shRNA. Format: cell-based, human.
Experimental: T47D cells harboring a doxycycline inducible control shRNA (GFP) or a doxycycline-inducible PSMD2 shRNA (TurboRFP) were incubated with doxycycline for 3 days. Cells were then split and grown in the absence of Dox and proteasome inhibitors were then added at various concentrations. Cells were maintained in culture and then counted.
For the generation of the T47D Tet-inducible PSMD2 knockdown cell line—the TRIPZ vector with an inducible shRNA targeting PSMD2 was purchased from Dharmacon (clone V3THS_403760). It was introduced to the T47D cells according to manufactures protocol and cells were selected with puromycin 1 μg/ml for one week. The cells were exposed to doxycycline for 24 hours and cells were FACS sorted for the top 10% of most RFP expressing cells (highest expression of shRNA). The cells were further cultured in the absence of doxycycline and PSMD2 knockdown was induced as specified in the relevant Examples.
Relative cell growth and survival were measured in 96-well microplate format in the shRNA experiments and in 384 well format in the drug toxicity assays, by using the fluorescent detection of resazurin dye reduction as an endpoint (544 nm excitation and 590 nm emission). 2,500 cells in 96 wells format or 1,000 cells in 384 well format were plated 24 hours before compound exposure (for 72 hours or indicated time). Each analysis was performed at least with three replicas.
Assay [2] relates to protein degradation and protein synthesis. As to the kind of experiment: Translation and degradation assays (3H-phenylalanine). The assay is classed as cell-based, human. The settings on record: 10 nM bortezomib. The procedure:
Next we examined the impact of reducing PSMD2 levels on protein degradation and protein synthesis. Cells were labeled with tritiated-phenylalanine for 24 hrs. We then separately measured the rates at which labeled proteins were degraded through the proteasome and through the lysosome.
To measure rates of protein synthesis, cells were pulse labeled with tritiated-phenylalanine for 1 hr.
For measuring overall rate of synthesis, cells were pretreated with 10 nM Bortezomib for 20 hours, then incorporation of ^3H-phenylalanine was measured for 1 h. The rate of synthesis was described as counts incorporated into cell proteins per hour and per μg of total cell proteins. When working with T47D cells, knockdown of PSMD2 was induced for 3 days with doxycycline before bortezomib treatment. For measuring overall rates of protein degradation, pulse-labeling with ^3H-phenylalanine for 24 hours was done before the bortezomib treatment as previously described (Zhao et al., 2007).

In assay [3] the test system is T47D cells. Briefly: Competition co-culture of shPSMD2-RFP and shControl-GFP T47D cells, FACS and microscopy. The assay is classed as cell-based, human. The conditions noted are these: 48 hours. The procedure: We created two cell lines—one line that expresses red fluorescent protein (turboRFP) and the doxycycline-inducible PSMD2-targeting shRNA and another line that expresses green fluorescent protein (GFP) and a doxycycline-inducible control shRNA (FIG. 6A). First, we induced shRNA expression with doxycycline for 48 hours. After recovery, we mixed shPSMD2-RFP and shControl-GFP cells at different ratios (either 1:1, 1:2, 1:5 or 1:10), adding the cells with reduced PSMD2 as the minority subpopulation. Twenty-four hours after plating, we treated these mixed populations of cells for 48 hours with increasing concentrations of bortezomib (5, 7.5 or 10 nM). We allowed the cells to recover in the absence of bortezomib and then we quantified the red and green cells by FACS analysis (FIG. 6A) and captured representative images by fluorescence microscopy (FIG. 6B).
The experiment described in Example 10 was repeated with minor differences using a panel of different proteasome inhibitors: MLN2238, MLN9708, and oprozomib T47D cells harboring a doxycycline inducible control shRNA (GFP) or a doxycycline-inducible PSMD2 shRNA (TurboRFP) were incubated with doxycycline for 3 days. Cells were collected, counted, and plated at a 1:10 ratio of TurboRFP-expressing PSMD2 shRNA cells/GFP expression control shRNA cells in the absence of Dox. Proteasome inhibitors were added at the specified concentrations and cells were maintained in culture. Cells were allowed to recover in the absence of the proteasome inhibitor and then analyzed by FACS (FIG. 8B, top) or visualized by microscopy (FIG. 8B, bottom). In the absence of proteasome inhibitors, the initial plating ratio of these cells (1:10) was maintained over the duration of the experiment (FIG. 8B). […] The effect was concentration-dependent in that higher concentrations elicited more substantial shifts.
cells were trypsinized in 100 μL Accumax® solution and further diluted into 100 μl PBSx1. The number of cells with red or green fluorescent proteins was measured by MACSQuant® VYB according to manufactures protocol. Images of RFP and GFP were created by overlaying images using Fiji software.

Assay [4] has as its system relapsed multiple myeloma. As to the kind of experiment: Phase 2 and 3 clinical trials of bortezomib in relapsed multiple myeloma, stratified by sigma score. The assay is classed as in vivo, human. The text has this:
We analyzed gene expression data from 135 patients with relapsed multiple myeloma who participated in Phase II or III trials of bortezomib (˜2007; Mulligan, G., Mitsiades, et al. (2007) Gene expression profiling and correlation with outcome in clinical trials of the proteasome inhibitor bortezomib. Blood 109, 3177-3188) and determined the sigma score for each cancer. The sigma score for each cancer (prior to treatment) was computed by comparing the expression of each 19S subunit (except PSMC4, which was not included in the analysis for technical reasons) in each cancer with the average expression of that subunit in the total set of cancers (reference level) and determining the number of standard deviations by which each expression level differed from the reference level.
Methods details: re-treatment gene expression data from relapsed multiple myeloma patients undergoing clinical trials with bortezomib were downloaded from GSE9782 (34). Gene expression data was RMA normalized and log transformed. Sigma scores were calculated from all probes. […] For each group, the time to relapse from bortezomib treatment was plotted as a Kaplan-Meier plot. P-value was calculated using Wilcoxon test.

Assay [5] concerns T47D cells. Briefly: Selleck anti-cancer compound library screen, PSMD2 KD versus control T47D cells (resazurin). Format: cell-based, human. The settings on record: 4 concentrations, 72 hours. The procedure:
After 48 hours the cells were collected, counted, and plated at 1000 cells/well in 384 well plates in duplicates for each cell line. Compounds from the Selleck Chemicals anti-cancer compound library β49 drugs in 4 concentrations; […]) were pinned the next day and viability was measured after 72 hours by the reduction of Resazurin (Ex=530 nm, Em=590 nm).
The effect of each drug on viability of cells was calculated by averaging the duplicate experiments. The data is plotted in FIG. 16 as the log2 of the ratio of viability of PSMD2 KD versus control cells (log2 (shPSMD2/Control)).

A further assay has as its system IMR32 and Kelly cells. Briefly: CellTiter-Glo viability of IMR32 and Kelly neuroblastoma cells. The settings on record: 0.001 um to 0.100 um; 72 hours. The assay is classed as cell-based. The method, then:
IMR32 and Kelly cells were each cultured in the presence of bortezomib at concentrations ranging from 0.001 um to 0.100 um. […] The fold viability relative to culture in the absence of bortezomib was determined for each cell line.
The fold viability relative to culture in the absence of the compound was determined for each cell line.

Where [6] appears, read: cells with transiently reduced PSMD2, 20 hours.

As for `CC(C)C[C@H](NC(=O)[C@H](Cc1ccccc1)NC(=O)c1cnccn1)B(O)O` [bortezomib], in the assay on T47D cells [1] (PSMD2 shRNA versus control), the “resistance upon doxycycline-induced reduction of PSMD2” value was “significantly increased resistance; also recorded: increase in resistance”. Also, the “resistance of cells harboring the PSMD2 shRNA versus parental line (EC50)” value in the assay with T47D cells [1] (doxycycline 3 days, 96 hour culture) was “considerably more resistant”. For the same molecule, the “rates of proteolysis by the lysosome” value in assay [2] (20-hour treatment) was “remained unchanged”. Also, in assay [2] (setting [6]), the “inhibition of proteasome degradation” value is listed as “strongly counteracted” and the “suppression of protein synthesis” value is reported as “strongly counteracted”. The “rate of protein degradation” value in assay [2] (control cells, 20-hour treatment) is “sharply decreased”. The “rate of protein synthesis” value in assay [2] (control cells, 20 hours) was “sharply decreased”. The “shift of surviving cell populations towards shPSMD2-RFP cells” value in the assay on T47D cells [3] (5 nM, ratios 1:1, 1:2, 1:5, 1:10) is on record as “substantially shifted the populations of surviving cells”. In addition, the “shift of surviving cell populations towards shPSMD2-RFP cells” value in the assay with T47D cells [3] (7.5 nM and 10 nM) is recorded as “even more substantial shifts”. The time to progression result in assay [4] (34 patients with reduced expression of at least one 19S subunit versus patients without, p-value=0.0086) is given as “shortened time to progression”. In addition, the progression-free survival result in assay [4] (patients with 3-Sigma disease versus sigma score less than 3) is “Reduced Progression-Free Survival”. For the same molecule, the “effectiveness over dexamethasone control” value in assay [4] (patients with reduced expression of 19S proteasome subunit(s)) is recorded as “no significant effectiveness over the dexamethasone control”. Further, the “selective effect on viability, PSMD2 KD versus control cells (log2 (shPSMD2/Control))” value in the assay on T47D cells [5] is “selectively reduce viability of control cells versus PSMD2 KD cells”. The “resistance of IMR32 cells relative to Kelly cells” value in the assay on IMR32 and Kelly cells is “increased resistance”.

These data come from US11092602B2, “Methods and compositions relating to proteasome inhibitor resistance” (Whitehead Institute for Biomedical Research, priority 2015, dated 2021).
